Test results from patent US9963448B2, “Bicyclic inhibitors of PAD4” (Padlock Therapeutics, Inc., priority 2015, dated 2018).
Like-named read-outs stand apart in the source and are kept apart here.

Columns and labels:
[1] = biological target: hPAD4 (Homo sapiens, UniProt Q9UM07); assay: hPAD4 RFMS (RapidFire mass spectrometry) PAD4 inhibition assay; type: biochemical; settings: hPAD4 enzyme, RFMS readout;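 for hPAD4 RFMS pIC50: grade E means pIC50 at most 4 and F means pIC50 4.0 to 5.0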
Procedure: (§1) Compounds of the present invention were assayed as inhibitors of PAD4 using the assay protocol described below.
(§2) Compound stock solutions were stored at RT. […] Final assay conditions were as follows:
(§3) Total incubation time: 65 mins at 37° C.
(§4) Stop solution: 40 μl 5% TCA in ACN
(§5) The compound numbers correspond to the compound numbers in Table 1. […] The term pIC50=−log(IC50). […] “NA” stands for “not assayed.”

[2] = biological target: mPAD4 (Mus musculus, UniProt Q9Z183); assay: mPAD4 RFMS PAD4 inhibition assay; type: biochemical; settings: mPAD4, RFMS readout;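 for mPAD4 RFMS pIC50: grade E means pIC50 at most 4 and F means pIC50 4.0 to 5.0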
mPAD4, sequence (Q9Z183 whole entry): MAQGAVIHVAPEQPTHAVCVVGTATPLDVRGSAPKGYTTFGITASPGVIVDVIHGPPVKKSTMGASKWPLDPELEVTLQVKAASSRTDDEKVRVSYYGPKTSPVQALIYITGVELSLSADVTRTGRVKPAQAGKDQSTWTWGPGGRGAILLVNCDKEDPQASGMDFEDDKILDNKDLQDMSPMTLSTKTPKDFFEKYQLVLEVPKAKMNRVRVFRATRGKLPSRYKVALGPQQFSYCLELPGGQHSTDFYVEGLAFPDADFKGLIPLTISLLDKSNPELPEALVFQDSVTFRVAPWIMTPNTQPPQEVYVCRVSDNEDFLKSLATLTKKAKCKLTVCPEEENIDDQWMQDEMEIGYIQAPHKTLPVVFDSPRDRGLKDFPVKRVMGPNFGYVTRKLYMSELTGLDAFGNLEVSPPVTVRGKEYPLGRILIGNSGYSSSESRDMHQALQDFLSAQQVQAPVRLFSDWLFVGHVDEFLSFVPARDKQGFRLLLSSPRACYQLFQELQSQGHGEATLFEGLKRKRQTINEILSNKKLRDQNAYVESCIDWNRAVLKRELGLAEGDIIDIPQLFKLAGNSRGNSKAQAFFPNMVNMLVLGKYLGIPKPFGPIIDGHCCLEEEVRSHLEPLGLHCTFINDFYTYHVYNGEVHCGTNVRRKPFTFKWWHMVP
Procedure: as §1, §2, §3, §4, §5

[3] = pIC50=−log(IC50), read-out: hPAD4 RFMS pIC50 (converted)
[4] = pIC50=−log(IC50), read-out: mPAD4 RFMS pIC50 (converted)

hPAD4, sequence (Q9UM07 whole entry): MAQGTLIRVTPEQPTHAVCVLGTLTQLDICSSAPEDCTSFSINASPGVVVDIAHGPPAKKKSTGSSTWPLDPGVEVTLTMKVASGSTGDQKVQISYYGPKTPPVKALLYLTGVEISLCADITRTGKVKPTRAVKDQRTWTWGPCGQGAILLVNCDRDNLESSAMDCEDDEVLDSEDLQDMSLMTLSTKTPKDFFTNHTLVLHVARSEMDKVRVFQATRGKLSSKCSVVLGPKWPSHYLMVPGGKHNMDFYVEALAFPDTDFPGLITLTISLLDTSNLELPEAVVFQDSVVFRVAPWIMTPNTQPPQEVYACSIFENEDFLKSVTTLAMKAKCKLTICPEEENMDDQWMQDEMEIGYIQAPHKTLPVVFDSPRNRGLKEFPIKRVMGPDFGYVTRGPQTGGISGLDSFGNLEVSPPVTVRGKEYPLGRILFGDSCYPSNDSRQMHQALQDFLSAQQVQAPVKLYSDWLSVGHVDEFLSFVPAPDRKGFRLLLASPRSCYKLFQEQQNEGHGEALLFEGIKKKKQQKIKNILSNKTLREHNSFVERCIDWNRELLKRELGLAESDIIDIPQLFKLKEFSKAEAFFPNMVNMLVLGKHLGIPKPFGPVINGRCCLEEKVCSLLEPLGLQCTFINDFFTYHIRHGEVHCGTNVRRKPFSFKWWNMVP

IC50 [1, 3] | IC50 ([1]; read-out: hPAD4 RFMS IC50) | IC50 [2, 4] | IC50 ([2]; read-out: mPAD4 RFMS IC50) | Compound
1000 to 10000 nM | 1000 to 5000 nM | 1 to 10 µM | 1 to 5 µM | CCn1c(-c2nc3cc(C(=O)N4C[C@H]5CC[C@@H]4[C@@H]5N)cc(F)c3n2C)cc2cccnc21 [Compound I-165]
< 1000 nM | < 1000 nM | < 1 µM | < 1 µM | CCn1c(-c2nc3cc(C(=O)N4C[C@H]5CC[C@@H]4[C@@H]5N)cc(OC)c3n2C)cc2ccc(OC(F)F)nc21 [Compound I-200, (1R,4R,7R)-2-{2-[6-(difluoromethoxy)-1-ethyl-1H-pyrrolo[2,3-b]pyridin-2-yl]-7-methoxy-1-methyl-1H-1,3-benzodiazole-5-carbonyl}-2-azabicyclo[2.2.1]heptan-7-amine]
1000 to 10000 nM | 1000 to 5000 nM | 1 to 10 µM | 1 to 5 µM | COc1ccc2cc(-c3nc4cc(C(=O)N5CC[C@@H](OC)[C@@H](N)C5)ccc4n3C)n(CC3CC3)c2n1 [Compound I-127]
1000 to 10000 nM | 1000 to 5000 nM | 1 to 10 µM | 1 to 5 µM | COc1cc(C(=O)N2CC3(CCCNC3)C2)cc2nc(-c3cc4cccnc4n3CC3CC3)n(C)c12 [Compound I-27]
1000 to 10000 nM | 1000 to 5000 nM | 1 to 10 µM | 1 to 5 µM | COc1cc(C(=O)N2CC3CCC2C(N)C3)cc2nc(-c3cc4cccnc4n3CC3CC3)n(C)c12 (stereo not shown) [Compound I-129]
< 1000 nM | < 1000 nM | < 1 µM | < 1 µM | COc1cc(C(=O)N2C[C@H]3CC[C@@H]2[C@@H]3N)cc2nc(-c3cc4ccc(C(F)(F)F)nc4n3CC3CC3)n(C)c12 [Compound I-196]
1000 to 10000 nM | 1000 to 5000 nM | 1 to 10 µM | 1 to 5 µM | COc1cc(C(=O)N2CCC(F)C(N)C2)cc2nc(-c3cc4cccnc4n3CC3CC3)n(C)c12 (racemic) [Compound I-75, 1-{2-[1-(Cyclopropylmethyl)-1H-pyrrolo[2,3-b]pyridin-2-yl]-7-methoxy-1-methyl-1H-1,3-benzodiazole-5-carbonyl}-4-fluoropiperidin-3-amine]
10000 to 100000 nM | > 10000 nM | 10 to 100 µM | > 10 µM | COc1cc(C(=O)N2CC[C@]3(CNCCC3(F)F)C2)cc2nc(-c3cc4cccnc4n3CC3CC3)n(C)c12 [Compound I-107]
< 1000 nM | < 1000 nM | 1 to 10 µM | 1 to 5 µM | Cn1c(-c2cc3cccnc3n2CC2CC2)nc2cc(C(=O)N3C[C@H]4CC[C@@H]3[C@@H]4N)cc(F)c21 [Compound I-191]
< 1000 nM | < 1000 nM | < 1 µM | < 1 µM | COc1cc(C(=O)N2CC[C@@H](OC)[C@@H](N)C2)cc2nc(-c3cc4cccnc4n3CC3CC3)n(C)c12 [Compound I-121]
10000 to 100000 nM | > 10000 nM | 10 to 100 µM | > 10 µM | COc1cc(C(=O)N2CC[C@@]3(CNCCC3(F)F)C2)cc2nc(-c3cc4cccnc4n3CC3CC3)n(C)c12 [Compound I-108]
< 1000 nM | < 1000 nM | < 1 µM | < 1 µM | COc1cc(C(=O)N2C[C@H]3CC[C@@H]2[C@@H]3N)cc2nc(-c3cc4cccnc4n3CC3CC3)n([C@H]3C[C@@H](F)C3)c12 [Compound I-225]
10000 to 100000 nM | > 10000 nM | 10 to 100 µM | > 10 µM | CN[C@@H]1[C@@H]2CC[C@H]1N(C(=O)c1cc(OC)c3c(c1)nc(-c1cc4cccnc4n1CC1CC1)n3C)C2 [Compound I-237, (1R,4R,7R)-2-{2-[1-(Cyclopropylmethyl)-1H-pyrrolo[2,3-b]pyridin-2-yl]-7-methoxy-1-methyl-1H-1,3-benzodiazole-5-carbonyl}-N-methyl-2-azabicyclo[2.2.1]heptan-7-amine]
